Assay results reported in patent US8138168B1 (Takeda Pharmaceutical Company Limited, priority 2007, dated 2012).
pIC50: −log10 of the molar value. Where two headings read alike, the source gives them in different places.

Target: T1, Recombinant human renin (Homo sapiens, UniProt P00797)
T1 construct: isolate the active form (residues 67-406); made in house; host or cells: FreeStyle 293-F cells (transient expression of pcDNA3.1(+)/hREN)
T1 sequence (P00797 67-406): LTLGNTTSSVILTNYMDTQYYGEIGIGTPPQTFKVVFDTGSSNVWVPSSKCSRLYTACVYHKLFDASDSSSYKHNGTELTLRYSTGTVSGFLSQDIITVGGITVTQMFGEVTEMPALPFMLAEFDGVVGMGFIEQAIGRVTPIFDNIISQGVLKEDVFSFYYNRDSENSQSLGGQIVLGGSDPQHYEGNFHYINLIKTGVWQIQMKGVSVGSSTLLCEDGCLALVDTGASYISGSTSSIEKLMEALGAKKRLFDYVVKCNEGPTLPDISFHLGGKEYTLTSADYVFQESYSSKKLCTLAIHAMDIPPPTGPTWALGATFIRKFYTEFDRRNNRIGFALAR
Test: In vitro enzymatic activity assay of renin inhibitors (fluorogenic peptide substrate)
Format: biochemical
Protocol: Test compounds in varying concentrations may be reacted with recombinant human renin in the presence of substrate, e.g., QXL520-γ-Abu-[…](HiLyteFluo488)-Arg-OH (Anaspec, San Jose, Calif.). […] Inhibition constants (IC50) may be calculated by non-linear curve fitting of the compound concentrations and fluorescence intensities to the standard IC50 equation.
Solutions of test compounds in varying concentrations mM final concentration) are prepared in dimethyl sulfoxide (DMSO) and then diluted into assay buffer comprising 50 mM Hepes, 1 mM EDTA, 1 mM DTT, 0.1 mg/mL BSA, 0.01% Brij35, pH 7.4. Alternatively, the assay can be performed with a high BSA concentration, wherein the buffer contains an additional 2% BSA.
Recombinant human renin (3 nM final concentration) is added to the dilutions and pre-incubated with the compounds for 10 minutes at 37° C. […] After pre-incubation, the reaction is initiated with of substrate QXL520-γ-Abu-[…](HiLyteFluo488)-Arg-OH (Anaspec, San Jose, Calif.). The final DMSO in the assay is 5%. The total volume of the reaction mixture is 20 μL, which can be placed on Greiner 384-well small volume plates.
The fluorescence intensity is determined upon the addition of substrate and determined again after incubation at 37° C. for one hour. The fluorescence intensity of a blank (no inhibition) using vehicle alone is also determined. Renin activity is linearly proportional to the change in fluorescence observed (final-initial).

[1] = read-out: IC50 of Exemplified Compounds Against Renin

Row | SMILES | pIC50 [1] | also measured
1 | CNC(=O)Nc1ccc(-c2ccc(C[C@@H](N)CC(=O)N3CCC[C@@H](c4nc5ccccc5n4CCCOC)C3)cc2)cc1 [Compound 175, 1-(4′-((R)-2-amino-4-((R)-3-(1-(3-methoxypropyl)-1H-benzo[d]imidazol-2-yl)piperidin-1-yl)-4-oxobutyl)biphenyl-4-yl)-3-methylurea] | > 7.00 | –
2 | N[C@@H](CC(=O)N1CCCC(c2nc3ccccc3[nH]2)C1)c1cccc(Br)c1 (stereo partly drawn) [Compound 41, (3S)-1-(3-(1H-benzo[d]imidazol-2-yl)piperidin-1-yl)-3-amino-3-(3-bromophenyl)propan-1-one] | < 6.00 | –
3 | COCCCn1c([C@@H]2CCCN(C(=O)C[C@H](N)c3cccc(C(F)(F)F)c3)C2)nc2ccccc21 [Compound 84, (S)-3-amino-1-((R)-3-(1-(3-methoxypropyl)-1H-benzo[d]imidazol-2-yl)piperidin-1-yl)-3-(3-(trifluoromethyl)phenyl)propan-1-one] | 6.00 to 7.00 | –
4 | CC(C)(C)[C@H](N)C(=O)N1CCCC(c2nc3ccccc3[nH]2)C1 (stereo partly drawn) [Compound 56, (2S)-1-(3-(1H-benzo[d]imidazol-2-yl)piperidin-1-yl)-2-amino-3,3-dimethylbutan-1-one] | < 6.00 | –
5 | COCCCn1c([C@@H]2CCCN(C(=O)C[C@H](N)Cc3ccc(-c4ccc5c(c4)CCO5)cc3)C2)nc2c(C)cccc21 [Compound 493, (R)-3-amino-4-(4-(2,3-dihydrobenzofuran-5-yl)phenyl)-l-((R)-3-(1-(3-methoxypropyl)-4-methyl-1H-benzo[d]imidazol-2-yl)piperidin-1-yl)butan-1-one] | > 7.00 | –
6 | O=C(Nc1ccccc1-c1ccccc1)N1CCCC(c2nc3ccccc3[nH]2)C1 (centres unmarked) [Compound 16, 3-(1H-benzo[d]imidazol-2-yl)-N-(biphenyl-2-yl)piperidine-1-carboxamide] | < 6.00 | –
7 | COCCCn1c(C2CCCN(C(=O)C[C@H](N)Cc3ccc4ccccc4c3)C2)nc2ccc(OC)nc21 (stereo partly drawn) [Compound 100, (R)-3-amino-1-(3-(5-methoxy-3-(3-methoxypropyl)-3H-imidazo[4,5-b]pyridin-2-yl)piperidin-1-yl)-4-(naphthalen-2-yl)butan-1-one] | 6.00 to 7.00 | –
8 | Cc1nc2ccccc2n1[C@@H]1CCCN(C(=O)C[C@H](N)Cc2ccc3ccccc3c2)C1 [Compound 245, (R)-3-amino-1((R)-3-(2-methyl-1H-benzo[d]imidazol-1-yl)piperidin-1-yl)-4-(naphthalen-2-yl)butan-1-one] | < 6.00 | Eutomer / distomer designation of the separated stereoisomers (isomers separated by preparative SFC, more or less active isomer as renin inhibitor): Distomer
9 | COCCCn1c([C@@H]2CCCN(C(=O)C[C@H](N)CNC(=O)c3ccc4ccccc4c3)C2)nc2ccccc21 [Compound 249, N-((S)-2-amino-4-((R)-3-(1-(3-methoxypropyl)-1H-benzo[d]imidazol-2-yl)piperidin-1-yl)-4-oxobutyl)-2-naphthamide] | > 7.00 | –
10 | COCCCn1c([C@@H]2CCCN(C(=O)C[C@H](N)CNC(=O)c3ccc(-c4ccc(Cl)cc4Cl)o3)C2)nc2ccccc21 [Compound 267, N-((S)-2-amino-4-((R)-3-(1-(3-methoxypropyl)-1H-benzo[d]imidazol-2-yl)piperidin-1-yl)-4-oxobutyl)-5-(2,4-dichlorophenyl)furan-2-carboxamide] | 6.00 to 7.00 | –
11 | COCCCn1c([C@@H]2CCCN(C(=O)[C@@H]3CN(S(=O)(=O)c4ccc(OC)cc4[N+](=O)[O-])C[C@H]3N)C2)nc2ccccc21 [Compound 381, ((3R,4S)-4-amino-1-(4-methoxy-2-nitrophenylsulfonyl)pyrrolidin-3-yl)((R)-3-(1-(3-methoxypropyl)-1H-benzo[d]imidazol-2-yl)piperidin-1-yl)methanone] | 6.00 to 7.00 | –
12 | COCCCn1c([C@@H]2CCCN(C(=O)C[C@H](N)Cc3ccc(-c4ccccc4)cc3)C2)nc2ccncc21 [Compound 103, (R)-3-amino-4-(biphenyl-4-yl)-1((R)-3-(3-(3-methoxypropyl)-3H-imidazo[4,5-c]pyridin-2-yl)piperidin-1-yl)butan-1-one] | < 6.00 | –
13 | COCCCn1c([C@@H]2CCCN(C(=O)C[C@H](N)Cc3ccc(-n4ccc(=O)n(C)c4=O)cc3)C2)nc2ccccc21 [Compound 210, 1-(4-((R)-2-amino-4-((R)-3-(1-(3-methoxypropyl)-1H-benzo[d]imidazol-2-yl)piperidin-1-yl)-4-oxobutyl)phenyl)-3-methylpyrimidine-2,4(1H,3H)-dione] | 6.00 to 7.00 | –
14 | COCCCn1c([C@@H]2CCCN(C(=O)[C@@H]3CN(C(=O)Oc4ccccc4Cl)C[C@H]3N)C2)nc2ccccc21 [Compound 390, (3S,4R)-2-chlorophenyl 3-amino-4-((R)-3-(1-(3-methoxypropyl)-1H-benzo[d]imidazol-2-yl)piperidine-1-carbonyl)pyrrolidine-1-carboxylate] | – | pIC50: < 6.00
15 | COCCCn1c([C@@H]2CCCN(C(=O)C[C@H](N)Cc3ccc(-c4ccc(C(=O)NCCO)cc4Cl)cc3)C2)nc2ccccc21 [Compound 192, 4′-((R)-2-amino-4-((R)-3-(1-(3-methoxypropyl)-1H-benzo[d]imidazol-2-yl)piperidin-1-yl)-4-oxobutyl)-2-chloro-N-(2-hydroxyethyl)biphenyl-4-carboxamide] | > 7.00 | –
16 | COCCCn1c([C@@H]2CCCN(C(=O)C[C@H](N)CNC(=O)NCCc3cc(OC)ccc3OC)C2)nc2ccccc21 [Compound 322, 1-((S)-2-amino-4-((R)-3-(1-(3-methoxypropyl)-1H-benzo[d]imidazol-2-yl)piperidin-1-yl)-4-oxobutyl)-3-(2,5-dimethoxyphenethyl)urea] | 6.00 to 7.00 | –
17 | COCCCn1c([C@@H]2CCCN(C(=O)[C@@H]3CN(c4ccc([N+](=O)[O-])cc4)C[C@H]3N)C2)nc2ccccc21 [Compound 508, ((3R,4S)-4-amino-1-(4-nitrophenyl)pyrrolidin-3-yl)((R)-3-(1-(3-methoxypropyl)-1H-benzo[d]limidazol-2-yl)piperidin-1-yl)methanone] | 6.00 to 7.00 | –

More lines, main results first:

Row | pIC50 [1] | SMILES | also measured
18 | > 7.00 | COCCCn1c([C@@H]2CCCN(C(=O)C[C@H](N)Cc3ccc(-c4ccnc(Cl)c4)cc3)C2)nc2ccccc21 [Compound 133, (R)-3-amino-4-(4-(2-chloropyridin-4-yl)phenyl)-1-((R)-3-(1-(3-methoxypropyl)-1H-benzo[d]imidazol-2-yl)piperidin-1-yl)butan-1-one] | –
19 | 6.00 to 7.00 | COCCCn1c([C@@H]2CCCN(C(=O)C[C@H](N)Cc3ccc(N4CCCC4=O)cc3)C2)nc2ccccc21 [Compound 209, 1-(4-((R)-2-amino-4-((R)-3-(1-(3-methoxypropyl)-1H-benzo[d]imidazol-2-yl)piperidin-1-yl)-4-oxobutyl)phenyl)pyrrolidin-2-one] | –
20 | 6.00 to 7.00 | COCCCn1c([C@@H]2CCCN(C(=O)C[C@H](N)Cc3ccc(N4CCN(C(C)=O)CC4)cc3)C2)nc2ccccc21 [Compound 232, (R)-4-(4-(4-acetylpiperazin-1-yl)phenyl)-3-amino-1-((R)-3-(1-(3-methoxypropyl)-1H-benzo[d]imidazol-2-yl)piperidin-1-yl)butan-1-one] | –
21 | 6.00 to 7.00 | COCCCn1c([C@@H]2CCCN(C(=O)C[C@H](N)Cc3ccc(Cl)cc3)C2)nc2ccccc21 [Compound 75, (R)-3-amino-4-(4-chlorophenyl)-1((R)-3-(1-(3-methoxypropyl)-1H-benzo[d]imidazol-2-yl)piperidin-1-yl)butan-1-one] | –
22 | > 7.00 | COCCCn1c([C@@H]2CCCN(C(=O)C[C@H](N)Cc3ccc(-c4ccc5c(c4)OCCN5C)cc3)C2)nc2c(F)cccc21 [Compound 453, (R)-3-amino-1-((R)-3-(4-fluoro-1-(3-methoxypropyl)-1H-benzo[d]imidazol-2-yl)piperidin-1-yl)-4-(4-(4-methyl-3,4-dihydro-2H-benzo[b][1,4]oxazin-7-yl)phenyl)butan-1-one] | –
23 | > 7.00 | COCCCn1c([C@@H]2CCCN(C(=O)C[C@H](N)Cc3ccc(-c4ccc5nonc5c4)cc3)C2)nc2ccccc21 [Compound 140, (R)-3-amino-4-(4-(benzo[c][1,2,5]oxadiazol-5-yl)phenyl)-1-((R)-3-(1-(3-metboxypropyl)-1H-benzo[d]imidazol-2-yl)piperidin-1-yl)butan-1-one] | –
24 | < 6.00 | COC(=O)[C@@H](Cc1ccccc1)NC(=O)N1CCCC(c2nc3ccccc3[nH]2)C1 (stereo partly drawn) [Compound 13, (2R)-methyl 2-(3-(1H-benzo[d]imidazol-2-yl)piperidine-1-carboxamido)-3-phenylpropanoate] | –
25 | 6.00 to 7.00 | COCCCn1c(C2CCCN(C(=O)C[C@H](N)Cc3ccc4ccccc4c3)C2)nc2ccc(C(=O)OC)cc21 (stereo partly drawn) [Compound 111, methyl 2-(1-((R)-3-amino-4-(naphthalen-2-yl)butanoyl)piperidin-3-yl)-1-(3-methoxypropyl)-1H-benzo[d]imidazole-6-carboxylate] | –
